Laboratory results taken from PubChem BioAssay (NCI).
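In this assay, cells in 96-well plates receive the compound at five concentrations for 48 hours. Endpoints are linearly interpolated between the surrounding concentrations. At the GI50, growth is halved. TGI: total growth inhibition.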

Key:
Assay in all cases: growth of human tumour cells (NCI), 48 h
[1] = system: K-562 leukemia
[2] = system: HOP-92 NSCLC
[3] = system: RPMI-8226 leukemia
[4] = system: HT29 colon
[5] = system: NCI-H522 lung
[6] = system: SNB-75 CNS
[7] = system: 786-0 renal
[8] = system: A498 renal
[9] = system: NCI-H226 lung
[10] = system: DU-145 prostate

Structure (SMILES)	TGI [1]	TGI [2]	TGI [3]	TGI [4]	TGI [5]	TGI [6]	TGI [7]	TGI [8]	TGI [9]	TGI [10]	GI50 [1]	GI50 [2]	GI50 [3]	GI50 [10]	GI50 [4]	GI50 [5]	GI50 [6]	GI50 [7]	GI50 [9]
Cc1cccc(C(C)C)c1NC(=O)CC1C(=O)Nc2ccccc2S1(=O)=O (stereo not given)	10.3 µM	30.7 µM	23 µM	26.8 µM	31.5 µM	> 69 µM	39.5 µM	> 54.2 µM	49.9 µM	–	–	–	–	–	–	–	–	–	–
CC1(C)C2C=CC1(C)C1(CC2)OCCO1 (stereo not given)	> 100 µM	–	> 100 µM	> 100 µM	–	> 100 µM	> 100 µM	> 100 µM	> 100 µM	> 100 µM	–	–	–	–	–	–	–	–	–
CN1c2ccccc2N(C)C23N(C)c4ccccc4N(C)C12N(C)c1ccccc1N3C (stereo not given)	> 100 µM	> 100 µM	–	> 100 µM	> 100 µM	> 100 µM	> 100 µM	> 100 µM	> 100 µM	–	–	–	–	–	–	–	–	–	–
Cc1ccc(Nc2nc(C)c(C(/C=C/c3ccc(/C=C/C(=N/NC(=O)C[n+]4ccccc4)c4sc(Nc5ccc(C)cc5[N+](=O)[O-])nc4C)cc3)=N\NC(=O)C[n+]3ccccc3)s2)c([N+](=O)[O-])c1	> 100 µM	–	–	> 100 µM	> 100 µM	> 100 µM	> 100 µM	–	84.5 µM	–	–	–	–	–	–	–	–	–	–
COc1ccc(/C=N/N=C(\N)NO)c(OC)c1	> 100 µM	> 100 µM	> 100 µM	–	–	–	> 100 µM	–	> 100 µM	–	–	–	–	–	–	–	–	–	–
[N-]=[N+]=NC(CI)c1cn([C@H]2C[C@H](O)[C@@H](CO)O2)c(=O)[nH]c1=O (stereo not given in full)	> 100 µM	> 100 µM	> 100 µM	> 100 µM	> 100 µM	> 100 µM	> 100 µM	–	> 100 µM	–	–	–	–	–	–	–	–	–	–
O=C1c2ccccc2-c2c1c1ccccc1c(=O)n2CCN1CCOCC1	73.5 µM	> 100 µM	> 100 µM	> 100 µM	> 100 µM	> 100 µM	> 100 µM	–	> 100 µM	> 100 µM	25.8 µM	> 100 µM	39 µM	> 100 µM	57.8 µM	39.5 µM	> 100 µM	> 100 µM	73.9 µM
Cc1ccccc1NC(=O)C(=O)CC(=O)c1c(C)n([O-])c2ccccc2[n+]1=O	> 100 µM	–	> 100 µM	> 100 µM	–	> 100 µM	> 100 µM	> 100 µM	> 100 µM	–	–	–	–	–	–	–	–	–	–
COc1cc(C2C(Cl)C(=O)N2NC(=O)c2ccc(N)cc2)ccc1O (stereo not given)	76.2 µM	52.8 µM	> 100 µM	45.8 µM	35 µM	> 100 µM	39.4 µM	> 100 µM	> 100 µM	–	–	–	–	–	–	–	–	–	–
CCOC(=O)NC(=O)c1cn(CCN2CCN(c3ncnc4nc[nH]c34)CC2)c(=O)[nH]c1=O	> 100 µM	> 100 µM	> 100 µM	> 100 µM	> 100 µM	> 100 µM	> 100 µM	> 100 µM	> 100 µM	–	–	–	–	–	–	–	–	–	–
CCOC(=O)C(=Cc1cccnc1C)C(=O)OCC	17.3 µM	24.5 µM	–	18.4 µM	11.7 µM	11.8 µM	20.8 µM	31 µM	53.3 µM	–	–	–	–	–	–	–	–	–	–
